Assays:
NCI-H1975 cells = assay: Cell proliferation assay (Celltiter 96), NCI-H1975; details: read-out: IC50 NCI-H1975; Table 1; IC50 ± S.D., two experiments in triplicate; L858R/T790M EGFR
Protocol: (§1) The cell line NCI-H460 is a model of a large-cell carcinoma and is characterized by wild-type EGFR-TK. By contrast, NCI-H1975 adenocarcinoma cells harbor a point mutation (L858R) in exon 21 as well as a secondary mutation (T790M) at the bottom of the hydrophobic ATP binding pocket.
(§2) The human non-small cell lung cancer cell lines, NCI-H460 (large cell) and NCI-H1975 (adenocarcinoma), were obtained from the American Type Culture Collection (Rockville, Md., USA). […] Cells were incubated at a constant temperature at 37° C. in a humidified atmosphere containing 5% CO2 and were subcultured every 2 to 3 days in order to maintain cells in logarithmic growth. The cytotoxicity studies were carried out according to a standard protocol using the Celltiter 96 aqueous nonradioactive cell proliferation assay kit (Promega, Madison, Wis.). Stock solutions (10 mM) of all drugs were made in DMF and serially diluted with media prior to incubation with cancer cells. IC50 values were calculated from dose-response curves using sigmoidal curve fits in GraphPad Prism (GraphPad Software, La Jolla, Calif.).

NCI-H460 cells = assay: Cell proliferation assay (Celltiter 96), NCI-H460; details: Homo sapiens, NCI-H460, read-out: IC50 NCI-H460
Protocol: as §1, §2

IC50 (NCI-H1975 cells): 51.7 ± 1.1 µM
IC50 (NCI-H460 cells): 36 ± 4.4 µM
Compound: CCOc1cc2ncnc(Nc3ccc(F)c(Cl)c3)c2cc1N(C)C(=S)NC [Compound 7, 1-(4-((3-Chloro-4-fluorophenyl)amino)-7-ethoxyquinazolin-6-yl)-1,3-dimethylthiourea]
